Experimental findings from patent publication US20110150914A1, “COMPOSITIONS AND METHODS FOR DENGUE VIRUS (DV) TREATMENT AND VACCINATION” (priority 2008, published 2011) are described below.

Where two headings read alike, the source gives them in different places. Ends that are not written are not given here.

Assay [1] deals with T1, purified H-2 K^b molecules (Mus musculus, UniProt P01901).
T1 construct: made in house
Put plainly: MHC peptide-binding assay, purified H-2 K^b. The procedure: (§1) MHC purification and quantitative assays to measure the binding affinity of peptides to purified H-2 K^b and H-2 D^b molecules were performed as previously described (Sidney et al., Curr Protoc Immunol 18:1813 2001); Vitiello et al., J Immunol 157:5555 (1996)). Briefly, 0.1-1 nM of radiolabeled peptide was co-incubated at room temperature with 1 μM to 1 nM of purified MHC in the presence of 1-3 μM human β2-microglobulin (Scripps Laboratories) and a mixture of protease inhibitors. After a 2 day incubation, binding of the radiolabeled peptide to the corresponding MHC class I molecule was determined by capturing MHC/peptide complexes on Lumitrac 600 microplates (Greiner Bio-One) coated with either the Y3 (anti-H-2 K^b) or 28-14-8S (anti-H-2 D^b, L^d and D^q) Ab, followed by measurement of bound counts per minute (cpm) using the TopCount microscintillation counter (Packard).
To confirm the MHC class I restriction of the 12 identified epitopes, measurements were performed of their MHC binding capacity using purified K^b and D^b molecules in an in vitro binding assay. Seven of the 12 epitopes bound the predicted allele with either high or intermediate affinity, as indicated by an IC50 of <50 nM or <500 nM, respectively. The five remaining epitopes also bound with biologically relevant affinities in the 500-2000 nM range.

Assay [2] relates to CD8^+ T cells. Nature of the assay: IFN-γ ELISPOT with CD8^+ T cells of DENV2-infected C57BL/6 mice. The settings on record: PL046 or S221 infected C57BL/6 mice. The format is cell-based.
Assay [3] deals with T2, purified H-2 D^b molecules (Mus musculus, UniProt P01899).
T2 construct: made in house
T2 sequence (P61769 21-119): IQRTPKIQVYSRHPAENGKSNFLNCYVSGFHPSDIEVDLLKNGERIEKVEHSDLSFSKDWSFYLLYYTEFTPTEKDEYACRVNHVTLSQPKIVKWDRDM
T2 sequence (P01899 25-362): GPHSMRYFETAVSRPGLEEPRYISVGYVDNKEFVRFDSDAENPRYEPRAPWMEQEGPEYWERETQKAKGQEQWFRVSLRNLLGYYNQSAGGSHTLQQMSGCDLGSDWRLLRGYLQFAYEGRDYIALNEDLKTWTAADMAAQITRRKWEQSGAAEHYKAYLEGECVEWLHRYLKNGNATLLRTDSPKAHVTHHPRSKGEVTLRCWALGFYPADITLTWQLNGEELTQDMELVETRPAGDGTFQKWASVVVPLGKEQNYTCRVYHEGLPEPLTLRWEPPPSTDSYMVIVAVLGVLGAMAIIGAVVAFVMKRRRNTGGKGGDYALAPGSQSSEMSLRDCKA
Nature of the assay: MHC peptide-binding assay, purified H-2 D^b. On the procedure: as §1, with “Briefly,” for “MHC purification and quantitative assays to measure the binding affinity of peptides to purified H-2 K^b and H-2 D^b molecules were performed as previously described (Sidney et al., Curr Protoc Immunol 18:1813 2001); Vitiello et al., J Immunol 157:5555 (1996)). Briefly,”

In assay [4] the test system is CD8^+ T cells. Put plainly: Intracellular cytokine staining (IFN-γ), splenocytes of S221-infected wild-type mice. The format is cell-based, C57BL/6 mice. The settings on record: wild-type C57BL/6, day 7 after 10^11 GE S221, peptide 0.1 μg/ml, 5 h. On the procedure: (§2) All Ab were purchased from eBioscience with the exception of anti-CD8α-PerCP and anti-CD107a-FITC which were obtained from BD Biosciences. RBC in blood were lysed using RBC lysis buffer (eBioscience). For surface staining, splenocytes or blood cells were washed, incubated with supernatant from 2.4G2-producing hybridoma cells to block Fc receptors, and labeled with anti-CD8α-PerCP, anti-CD44-APC, and anti-CD62L-PE. For intracellular cytokine staining, 10^6 splenocytes or 10^5 blood cells were plated in 96-well U-bottom plates and stimulated with individual DENV peptides (0.1 μg/ml) in the presence of brefeldin A (GolgiPlug, BD Biosciences) for 5 h. For CD107a staining, CD107a-FITC (or rat IgG2a-FITC) was added to the wells at the same time as the peptide. Cells were washed, incubated with 2.4G2 supernatant, labeled with anti-CD8α-PerCP, fixed and permeabilized using the BD Cytofix/Cytoperm Kit, and stained with anti-IFN-γ-APC and anti-TNF-α-PE. Samples were read on a FACS Caliber (BD Biosciences) and analyzed using FloJo software (Tree Star, Inc.)
To confirm that the IFN-γ response to the MHC class I-binding DENV peptides was mediated by CD8^+ T cells, intracellular cytokine staining (ICS) on CD8^+ T cells isolated from S221-infected wild-type mice was performed. Splenocytes were harvested from C57BL/6 mice 7 days after infection with 10^11 genomic equivlalents (GE) S221 and were re-stimulated in vitro with individual DENV2 peptides or an irrelevant peptide (irr) at 0.1 μg/ml in the presence of brefeldin A for 5 h. Cells were then stained for surface CD8 and intracellular IFN-γ and analyzed by flow cytometry. […] The percent of CD8^+ T cells producing IFN-γ is indicated. Referring to FIG. 2B, the figure is a summary of the DENV2-specific CD8^+ IFN-γ^+ response. The response to the irrelevant control peptide was subtracted from the responses to each DENV2 peptide. Each symbol represents one mouse and the bar represents the geometric mean. The identification of the 12 positive peptides for S221 was confirmed by the intracellular cytokine staining (ICS) (FIG. 2A), and the response to the 8 most dominant peptides was determined (FIG. 2B). The responses ranged from 0.14% recognizing NS2A 36 to 9.8% of CD8^+ T cells recognizing NS4B 99.
Splenocytes were harvested from naïve C57BL/6 mice or mice 7 days after infection with 10^11 GE of S221. The percent of CD8^+ T cells expressing CD44 and CD62L was determined in four independent studies (FIG. 3A). On day 7 after infection, splenocytes were stimulated with the eight major DENV2 peptides (individually; at 0.1 μg/ml) in the presence of brefeldin A, and stained for surface CD8 and intracellular IFN-γ. The percent of CD8^+ T cells producing IFN-γ in response to the irrelevant control peptide was subtracted from the response to each DENV2 peptide to determine the net response. The net responses to the eight major DENV2 peptides were added to determine the percent of DENV2-specific CD44^hi, CD62^lo, and CD44^hiCD62L^lo CD8^+ T cells (FIG. 3B). The data are expressed as the mean percent±SEM of 11-14 mice tested in at least four independent experiments.

The test system of assay [5] is CD8^+ T cells. Nature of the assay: Intracellular cytokine staining (IFN-γ), splenocytes of S221-infected IFN-α/βR^−/− mice. To be noted: day 7 after 10^10 GE S221. The format is cell-based. The procedure: as §2
The S221-specific CD8^+ T cell response in the IFN-α/βR^−/− mice was studied. […]
The S221-specific CD8^+ T cell response in IFN-α/βR^−/− mice was further studied. […] Referring to FIGS. 5C, 5E and 5F, the number of splenic CD8^+ T cells in naïve (n=4) and infected (n=7) mice was measured (results described above). […] The data are expressed as the percent±SEM of seven mice tested in three independent experiments.
The initial epitope identification studies were performed in wild-type mice. […] Cells were then stained for surface CD8 and intracellular IFN-γ and analyzed by flow cytometry. […] Results are expressed as the mean±SEM of 13 wild-type and 7 IFN-α/βR^−/− mice were tested in at least three independent experiments. Referring FIGS. 8C and D, the figures show kinetics of the DENV-specific CD8^+ T cell response as determined by the study. […]

For assay [6], the system named is DENV peptide-pulsed target cells. Put plainly: In vivo cytotoxicity assay. To be noted: IFN-α/βR^−/− mice infected 7 days previously with 10^10 GE S221; 4 h after i.v. transfer; targets pulsed 0.5 μg/ml.
Assay [7] concerns CD8^+ T cells. Put plainly: TNF-α and CD107a staining after peptide re-stimulation. The format is cell-based, wild-type or IFN-α/βR^−/− mice. To be noted: splenocytes day 7 after S221 infection. The procedure: as §2
Because polyfunctional CD8^+ T cell responses are associated with protection (Harari et al., Immunol Rev 211:236 (2006)), the phenotype of the DENV-specific CD8^+ T cells in wild-type and IFN-α/βR^−/− mice was studied in more detail by measuring CD107a expression (CD107a, or LAMP-1, is expressed on the cell surface upon degranulation) and TNF-α production for two of the DENV-specific CD8^+ T cell populations, as described above. To collect the data, splenocytes harvested from wild-type or IFN-α/βR^−/− mice 7 days after infection with 10^11 or 10^10 GE of S221, respectively, were re-stimulated in vitro with C51-59, NS4B99-107, or an irrelevant peptide. An anti-CD107a Ab was added for the duration of the stimulation. Cells were then stained for surface CD8, intracellular IFN-γ and TNF-α, and analyzed by flow cytometry.

[8] abbreviates: purified MHC, radiolabeled peptide competition, read-out: Binding affinity (IC50 nM) H2-D^b.
Setting [9] is: purified MHC, radiolabeled peptide competition, read-out: Binding affinity (IC50 nM) H2-K^b.

T1 sequence (P61769 21-119): as the sequence (P61769 21-119) above
T1 sequence (P01901 22-369): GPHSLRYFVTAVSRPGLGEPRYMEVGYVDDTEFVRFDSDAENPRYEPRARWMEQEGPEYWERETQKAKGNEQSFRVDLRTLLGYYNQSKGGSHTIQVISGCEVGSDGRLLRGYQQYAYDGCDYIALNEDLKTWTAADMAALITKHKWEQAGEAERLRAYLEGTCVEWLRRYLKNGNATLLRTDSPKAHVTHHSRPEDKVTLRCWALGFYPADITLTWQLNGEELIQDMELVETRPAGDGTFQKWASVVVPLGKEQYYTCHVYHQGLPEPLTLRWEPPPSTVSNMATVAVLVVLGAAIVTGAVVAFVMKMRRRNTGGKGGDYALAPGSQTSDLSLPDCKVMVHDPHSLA

For the sequence FSLGVLGM [NS2A8-15], the IC50 in assay [1] was over 2000 nM; in assay [3] (setting [8]), 1800 nM. Also, the “IFN-γ ELISPOT response (net SFC per 10^6 CD8^+ T cells), in words” value in the assay on CD8^+ T cells [2] is listed as “highest responses”.
On to GMLQGRGPL [Epitope C36-44], for which the IC50 in assay [1] (setting [9]) came out at 1340 nM; in assay [3] (setting [8]) it was 820 nM.
Regarding LAVTIMAIL [NS2A145-153], the IC50 in assay [1] is over 2000 nM; in assay [3] (setting [8]) it was 644 nM.
On to MTMRCIGI [Epitope E-2-6], for which the IC50 is 1080 nM in assay [1] (setting [9]) and over 2000 nM in assay [3]. The “IFN-γ ELISPOT response (net SFC per 10^6 CD8^+ T cells), in words” value with CD8^+ T cells [2] is reported as “highest responses”.
For RALIFILL [Epitope M60-67], in the assay with CD8^+ T cells [4], the “percent of CD8^+ T cells producing IFN-γ / recognizing the peptide” value stood at 0.4%. Besides, the half-maximal inhibitory concentration (IC50) was 22 nM in assay [1] (setting [9]) and over 2000 nM in assay [3]. Further, in the assay with CD8^+ T cells [5], the “% of splenic CD8^+ T cells recognizing the peptide” value was determined as 11%.
In the case of RMLINRFTM [NS5237-45], in assay [6], the “percentage killing of peptide-pulsed target cells” value is reported as 46%. In addition, the IC50 was over 2000 nM in assay [1] and 21 nM in assay [3] (setting [8]). In addition, in the assay with CD8^+ T cells [2], the “IFN-γ ELISPOT response (net SFC per 10^6 CD8^+ T cells), in words” value is recorded as “highest responses”.
Turning to TAIANQATV [NS4B66-74], the figures for the 50% inhibitory concentration (IC50) in assay [1] and in assay [3] (setting [8]) were over 2000 nM and 1.3 nM, respectively.
With VAFLRFLTI [Epitope C51-59], the IC50 amounted to 20 nM in assay [1] (setting [9]) and 1380 nM in assay [3] (setting [8]). Further, the “CD107a surface expression (degranulation)” value in the assay with CD8^+ T cells [7] is given as “expressed CD107a on the surface”. The “TNF-α production by peptide-specific CD8^+ T cells” value in the assay on CD8^+ T cells [7] was “produced TNF-α”. In the assay on CD8^+ T cells [2], the “IFN-γ ELISPOT response (net SFC per 10^6 CD8^+ T cells), in words” value was “highest responses”.
Take VAVSFVTLI [NS2A36-44]: the “percent of CD8^+ T cells producing IFN-γ / recognizing the peptide” value in the assay with CD8^+ T cells [4] came to 0.14%. The results for the IC50 in assay [1] (setting [9]) and in assay [3] (setting [8]) were 12 nM and 997 nM, respectively.
In turn, VSWTMKIL [Epitope E451-458] yielded an IC50 in assay [3] of over 2000 nM.

The term IC50 denotes the concentration that inhibits the measured activity by half.
